Key:
Conditions in all cases: 48 h
[1] = tested on: NOMO1; test: AUC of viability dose-response curve (% viability x log10 dose units); higher = less sensitive
How it was run: (§1)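 Library compounds in DMSO were applied for 48 h at 37°C at 11 threefold doses (47 μM to 0.79 nM) to medium-adapted leukemia cells in 1536-well plates holding 500 or 1000 cells/well. Luminescence from CellTiter-Glo One was normalised plate by plate against DMSO and cell-free wells. Area under the curve came from trapezoidal integration of a log-logistic fit, after scaling curves that rose above full viability and discarding those that failed quality control. The fit had four parameters and used log10 doses.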

[2] = tested on: P12-Ichikawa; test: as above
How it was run: as §1

[3] = tested on: SEM cells; test: as above
How it was run: as §1

[4] = tested on: NOMO1; test: cell viability relative to DMSO control; higher = less cytotoxic
How it was run: (§2)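 NOMO1, SEM and P12-Ichikawa leukemia cells spent at least four passages adapting to each medium before use. They were seeded at 500 cells/well (NOMO1, SEM) or 1000 cells/well (P12-Ichikawa) in 5 μl in 1536-well plates and pin-dosed with library compounds in DMSO at 11 threefold steps from 47 μM down to 0.79 nM. After 48 h at 37°C, CellTiter-Glo One luminescence was read. Viability is reported as a percentage of the DMSO wells on each plate, with cell-free wells as background.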

[5] = tested on: P12-Ichikawa; test: as above
How it was run: as §2

[6] = tested on: SEM cells; test: as above
How it was run: as §2

NC(CO)C(=O)NNCc1ccc(O)c(O)c1O (stereo unspecified)
AUC of viability dose-response curve
Conditions | [1] | [2] | [3]
HPLM + 10% dialyzed FBS | 448 | 450 | 450
RPMI 5 mM glucose + 10% FBS | 431 | 435 | 439
RPMI 5 mM glucose + 10% dialyzed FBS | 454 | 428 | 437

cell viability [%]
Conditions | [4] | [5] | [6]
HPLM + 10% dialyzed FBS, 0.000781 µM | 96.1 | 103 | 93.3
HPLM + 10% dialyzed FBS, 0.00234 µM | 104 | 93.7 | 116
HPLM + 10% dialyzed FBS, 0.00702 µM | 106 | 99.7 | 105
HPLM + 10% dialyzed FBS, 0.0211 µM | 93.5 | 103 | 89.9
HPLM + 10% dialyzed FBS, 0.0632 µM | 107 | 103 | 106
HPLM + 10% dialyzed FBS, 0.19 µM | 107 | 100 | 99.8
HPLM + 10% dialyzed FBS, 0.569 µM | 91.6 | 87.9 | 102
HPLM + 10% dialyzed FBS, 1.71 µM | 88.1 | 90.7 | 103
HPLM + 10% dialyzed FBS, 5.12 µM | 90.6 | 90.9 | 104
HPLM + 10% dialyzed FBS, 15.4 µM | 89 | 92.2 | 89.4
HPLM + 10% dialyzed FBS, 46.1 µM | 77.2 | 54 | 84.2
RPMI 5 mM glucose + 10% FBS, 0.000781 µM | 85.6 | 96.5 | 99.8
RPMI 5 mM glucose + 10% FBS, 0.00234 µM | 101 | 100 | 104
RPMI 5 mM glucose + 10% FBS, 0.00702 µM | 96.3 | 99.6 | 101
RPMI 5 mM glucose + 10% FBS, 0.0211 µM | 95.9 | 91 | 84.7
RPMI 5 mM glucose + 10% FBS, 0.0632 µM | 94.4 | 105 | 101
RPMI 5 mM glucose + 10% FBS, 0.19 µM | 94.1 | 99.5 | 105
RPMI 5 mM glucose + 10% FBS, 0.569 µM | 89.4 | 91.7 | 98.3
RPMI 5 mM glucose + 10% FBS, 1.71 µM | 85 | 92.8 | 96.1
RPMI 5 mM glucose + 10% FBS, 5.12 µM | 84.3 | 93.6 | 72.9
RPMI 5 mM glucose + 10% FBS, 15.4 µM | 83.7 | 81 | 99
RPMI 5 mM glucose + 10% FBS, 46.1 µM | 82.9 | 19.1 | 12.6
RPMI 5 mM glucose + 10% dialyzed FBS, 0.000781 µM | 89.4 | 99.9 | 103
RPMI 5 mM glucose + 10% dialyzed FBS, 0.00234 µM | 102 | 89 | 105
RPMI 5 mM glucose + 10% dialyzed FBS, 0.00702 µM | 107 | 94 | 104
RPMI 5 mM glucose + 10% dialyzed FBS, 0.0211 µM | 90.8 | 98.3 | 89.2
RPMI 5 mM glucose + 10% dialyzed FBS, 0.0632 µM | 98.8 | 96.5 | 95
RPMI 5 mM glucose + 10% dialyzed FBS, 0.19 µM | 102 | 93.7 | 88.5
RPMI 5 mM glucose + 10% dialyzed FBS, 0.569 µM | 91.9 | 88.6 | 100
RPMI 5 mM glucose + 10% dialyzed FBS, 1.71 µM | 90 | 94.2 | 91.4
RPMI 5 mM glucose + 10% dialyzed FBS, 5.12 µM | 96 | 85.3 | 90.5
RPMI 5 mM glucose + 10% dialyzed FBS, 15.4 µM | 92.7 | 91.4 | 87.8
RPMI 5 mM glucose + 10% dialyzed FBS, 46.1 µM | 82.6 | 26.5 | 18

COc1cc(Cl)cn2c(-c3cccc(NC4CNC4)n3)cnc12
AUC of viability dose-response curve
Conditions | [1] | [2] | [3]
HPLM + 10% dialyzed FBS | 472 | 459 | 453
RPMI 5 mM glucose + 10% FBS | 468 | 458 | 442
RPMI 5 mM glucose + 10% dialyzed FBS | 454 | 464 | 440

cell viability [%], HPLM + 10% dialyzed FBS
Conditions | [4] | [5] | [6]
0.000781 µM | 123 | 125 | 114
0.00234 µM | 115 | 121 | 117
0.00702 µM | 118 | 131 | 131
0.0211 µM | 142 | 125 | 121
0.0632 µM | 152 | 129 | 133
0.19 µM | 148 | 130 | 116
0.569 µM | 141 | 131 | 125
1.71 µM | 150 | 135 | 90.8
5.12 µM | 129 | 129 | 128
15.4 µM | 129 | 127 | 105
46.1 µM | 111 | 139 | 96.8

NNc1nncc2ccccc12
AUC of viability dose-response curve
Conditions | [1] | [2] | [3]
HPLM + 10% dialyzed FBS | 472 | 470 | 436
RPMI 5 mM glucose + 10% FBS | 461 | 452 | 454
RPMI 5 mM glucose + 10% dialyzed FBS | 466 | 463 | 438

cell viability [%]
Conditions | [4] | [5] | [6]
HPLM + 10% dialyzed FBS, 0.000781 µM | 115 | 112 | 76.2
HPLM + 10% dialyzed FBS, 0.00234 µM | 125 | 121 | 105
HPLM + 10% dialyzed FBS, 0.00702 µM | 131 | 127 | 109
HPLM + 10% dialyzed FBS, 0.0211 µM | 139 | 122 | 103
HPLM + 10% dialyzed FBS, 0.0632 µM | 144 | 126 | 117
HPLM + 10% dialyzed FBS, 0.19 µM | 146 | 131 | 122
HPLM + 10% dialyzed FBS, 0.569 µM | 134 | 121 | 112
HPLM + 10% dialyzed FBS, 1.71 µM | 139 | 134 | 136
HPLM + 10% dialyzed FBS, 5.12 µM | 132 | 129 | 126
HPLM + 10% dialyzed FBS, 15.4 µM | 119 | 124 | 117
HPLM + 10% dialyzed FBS, 46.1 µM | 128 | 130 | 132
RPMI 5 mM glucose + 10% FBS, 0.000781 µM | 123 | – | 87.8
RPMI 5 mM glucose + 10% FBS, 0.00234 µM | 121 | – | 114
RPMI 5 mM glucose + 10% FBS, 0.00702 µM | 128 | – | 128
RPMI 5 mM glucose + 10% FBS, 0.0211 µM | 126 | – | 128
RPMI 5 mM glucose + 10% FBS, 0.0632 µM | 151 | – | 152
RPMI 5 mM glucose + 10% FBS, 0.19 µM | 124 | – | 125
RPMI 5 mM glucose + 10% FBS, 0.569 µM | 135 | – | 156
RPMI 5 mM glucose + 10% FBS, 1.71 µM | 130 | – | 162
RPMI 5 mM glucose + 10% FBS, 5.12 µM | 128 | – | 131
RPMI 5 mM glucose + 10% FBS, 15.4 µM | 137 | – | 134
RPMI 5 mM glucose + 10% FBS, 46.1 µM | 131 | – | 115
RPMI 5 mM glucose + 10% dialyzed FBS, 0.000781 µM | 121 | – | 89.6
RPMI 5 mM glucose + 10% dialyzed FBS, 0.00234 µM | 139 | – | 124
RPMI 5 mM glucose + 10% dialyzed FBS, 0.00702 µM | 121 | – | 125
RPMI 5 mM glucose + 10% dialyzed FBS, 0.0211 µM | 130 | – | 143
RPMI 5 mM glucose + 10% dialyzed FBS, 0.0632 µM | 137 | – | 152
RPMI 5 mM glucose + 10% dialyzed FBS, 0.19 µM | 132 | – | 135
RPMI 5 mM glucose + 10% dialyzed FBS, 0.569 µM | 141 | – | 147
RPMI 5 mM glucose + 10% dialyzed FBS, 1.71 µM | 138 | – | 163
RPMI 5 mM glucose + 10% dialyzed FBS, 5.12 µM | 134 | – | 153
RPMI 5 mM glucose + 10% dialyzed FBS, 15.4 µM | 131 | – | 156
RPMI 5 mM glucose + 10% dialyzed FBS, 46.1 µM | 141 | – | 158

— the supplement of paper PMC11451515
